According to article PMC3753068 (Small (Weinheim an der Bergstrasse, Germany), 2012):
Where a SMILES comes first, the peptide text is derived from it. The star is where a group is joined. X1 = O=C(CCCCCCCCCCS)NCCCOCCOCCOCCCN*

Test: Stability of peptides in human serum
Type: in vitro ADME

half-life: 17.5 min
Structure (SMILES): CC(=O)N[C@@H](CC(=O)O)C(=O)N[C@@H](CC(C)C)C(=O)N[C@@H](Cc1c[nH]c2ccccc12)C(=O)N[C@@H](CCCCN)C(=O)N[C@@H](CC(C)C)C(=O)NCCCOCCOCCOCCCNC(=O)CCCCCCCCCCS [Compound 1] (Ac-DLWKL-X1; C-terminus assumed)
